In brackets after ≈: the same amount, converted by molar mass.
Test system: human platelet aggregation (ADP-induced)
Type: cell-based
Details: human platelet rich plasma; ADP final concentration 0.5 mcg/mL; read-out: Inhibition of Human Platelet Aggregation IC50 Vs ADP

Row | IC50 [µg/mL] | Structure (SMILES)
1 | 0.41 (≈ 0.955 µM) | COC(=O)COc1cccc(CCc2nc(-c3ccccc3)c(-c3ccccc3)s2)c1 [Example 1, Methyl (3-[2-(4,5-diphenyl-2-thiazolyl)ethyl]phenoxy]acetate]
2 | 0.36 (≈ 0.866 µM) | O=C(O)COc1cccc(CCc2nc(-c3ccccc3)c(-c3ccccc3)s2)c1 [Example 2, [3-[2-(4,5-Diphenyl-2-thiazolyl)ethyl]phenoxy]acetic Acid]

Source: patent US5077305A, “Thiazole carboxylic acids and esters” (Bristol-Myers Squibb Co., priority 1990, dated 1991)
